# Columns and labels:
# [1] = test system: macropinocytosis; conditions: cited from earlier work
# [2] = test system: HeLa cells expressing HA-H-Ras^V12; test: High-throughput macropinocytosis assay (TMR-dextran uptake, Arrayscan spot detection); assay type: cell-based, human; conditions: 30 min pre-incubation in serum-free media, then TMR-dextran 30 min; dose-response
# From the text: To analyze and quantify Ras-stimulated macropinocytosis, a high content screening (HCS)-compatible platform designed for rapid spot analysis was desired. One such platform is the Arrayscan HCS Reader (Cellomics) in conjunction with the Spot Detector BioApplication (Cellomics), which is designed to provide fluorescent- and image-based generic spot analysis for multiple biological applications. As a model cell-based system, a HeLa Tet-Off (HTO) cell line (Clontech) stably transfected with a tetracycline-repressible transgene encoding an oncogenic form of hemagglutinin (HA)-tagged H-Ras (H-Ras^V12) was used. In brief, 2000 cells per well were plated in 384-well plate format in a total volume of 50 μL. To induce expression of H-Ras^V12, cells were plated in media lacking tetracycline, while control cells were plated in 50 ng/mL tetracycline. […] Macropinosomes were analyzed on a cell-to-cell basis using multichannel analysis on the Arrayscan HCS Reader (FIG. 21A). […] A circular spot identification target region (or mask) was then applied for each object on Channel 2, and spots were detected based on their fluorescent intensity, size, and shape. […] To quantify this, the output feature selected for Channel 2 was Spot Count Per Object, which is effectively a measure of total number amount of fluorescent extracellular fluid internalized per cell in a given incubation time. […]
# [3] = test system: oncogenic Ras^V12-expressing HeLa cells; test: Survival under glutamine starvation with extracellular albumin; assay type: cell-based, human; conditions: glutamine-free media, low BSA or 2% BSA
# Protocol: If albumin internalization via Ras-stimulated macropinocytosis serves to augment the glutamine supply, then this process should confer a survival and growth advantage under conditions where free glutamine is limiting. To test this prediction, the survival of oncogenic Ras^V12-expressing HeLa cells was tested. […] It was hypothesized that this was due to albumin-derived amino acids that were augmenting the intracellular glutamine supply. It was determined that Ras^V12-survival was enhanced at higher concentrations of extracellular albumin (up to 2%; FIG. 13) and that this survival enhancement was suppressed by EIPA, a macropinocytosis inhibitor (FIGS. 14A-14B).
# [4] = test system: K-Ras^V12-transformed NIH3T3 cells; test: High-throughput macropinocytosis assay, amended protocol; assay type: cell-based, murine; conditions: high-throughput quantification
# From the text: To explore the flexibility of the high-throughput compatible macropinocytosis assay, the HeLa-based Spot Detector BioApplication parameters were amended to quantify macropinocytosis in K-Ras^V12-expressing NIH3T3 cells. To do this, object identification parameters were altered to accommodate larger nuclei and the spot identification target region was adjusted accordingly. Untransformed NIH3T3 cells display low levels of macropinocytosis, compared to K-Ras^V12-transformed cells. Using this amended protocol, it was possible to quantify fluid-phase uptake in these cells and determine that K-Ras^V12-expressing cells have a 3-4 fold increase in macropinocytosis (FIGS. 2A-2B). To examine the effects of macropinocytosis inhibitors, K-Ras^V12-transformed NIH3T3 cells were treated with increasing concentrations of LY294002 or EIPA.
# [5] = test system: MIA-Paca-2 cells; test: TMR-dextran labeling of macropinosomes; assay type: cell-based, human; conditions: MIA-Paca-2, oncogenic K-Ras^G12C
# Protocol: (§1) It was postulated that cancer cells harboring oncogenic Ras mutations would display higher levels of macropinocytosis compared to cancer cells having a non-mutant Ras. For pancreatic cancer cells, macropinocytosis was analyzed in MIA-Paca-2 cells, which are homozygous for the oncogenic K-Ras^G12C allele (Lopez-Crapez et al., “Rapid and Large-Scale Method to Detect K-Ras Gene Mutations in Tumor Samples,” Clin. Chem. 43(6 Pt 1):936-42 (1997) and Pretlow et al., “K-Ras Mutations in Putative Preneoplastic Lesions in Human Colon,” J. Natl. Cancer Inst. 85(24):2004-7 (1993), which are hereby incorporated by reference in their entirety) and BxPc-3 cells that only express wild-type K-Ras (Aoki et al., “Liposome-Mediated in vivo Gene Transfer of Antisense K-Ras Construct Inhibits Pancreatic Tumor Dissemination in the Murine Peritoneal Cavity,” Cancer Res. 55(17):3810-6 (1995), which is hereby incorporated by reference in its entirety). As a bladder model, uptake in T24 and 5637 cells was analyzed. T24 cells are homozygous for the oncogenic H-Ras^V12C allele and 5637 cells only express wild-type H-Ras. […]
# [6] = test system: T24 cells; test: FITC-BSA internalization; assay type: cell-based
# Protocol: (§2) When added to the growth medium, fluorescently-labeled bovine serum albumin (FITC-BSA) was incorporated into vesicular compartments in oncogenic Ras^V12-expressing HeLa cells (FIG. 6A), MIA-Paca-2, and T24 cells. […] Quantification of FITC-BSA uptake was performed utilizing an amended form of the high-throughput protocol described herein (FIG. 6B). Using colocalization experiments, it was observed that FITC-BSA is internalized with a macropinocytosis marker, dextran (FIG. 7A-7C). To be utilized as a nutrient source, the protein contents of Ras-stimulated macropinosomes must be delivered to a degradative compartment, such as the lysosome. The fate of the macropinosomes was followed via pulse chase experiments and their fusion with lysosomes was monitored by co-staining with lysosomal markers (i.e. Lysotracker). Cells were pulsed with TMR-dextran and incubated with TMR-dextran-free media for varying intervals. At the end of the incubation period, cells were stained with a lysosomal marker and visualized by fluorescent microscopy.
# [7] = test system: NIH 3T3 [K-Ras^G12V] cells; test: Intracellular glutamate and α-ketoglutarate levels after albumin supplementation; assay type: cell-based, murine; conditions: complete medium + 2% albumin, 24 hours
# Protocol: Glutamine is a major nutrient for many proliferating cells and is rapidly metabolized to glutamate, then α-ketoglutarate to enter central carbon metabolism. To test whether the favorable effects of albumin supplementation on cell growth were related to glutamine metabolism, the intracellular concentrations of glutamate and α-ketoglutarate in cells grown either in the absence or presence of albumin was measured. NIH 3T3 [K-Ras^G12V] cells were cultured for 24 hours in complete media (CM) supplemented to physiological concentrations of albumin (2 g/100 mL, 2%). As a control, NIH 3T3 [K-Ras^G12V] cells were also cultured in CM alone, which contains minimal levels of albumin (˜0.2%). Cells were lysed and metabolite levels were determined from deproteinized cell lysates. The addition of albumin to the media led to significant increases in intracellular concentrations of both glutamate and α-ketoglutarate (FIG. 20A).
# [8] = test system: MIA-Paca-2 cells; test: FITC-BSA internalization; assay type: cell-based, human
# Protocol: as §2
# [9] = test system: oncogenic Ras^V12-expressing HeLa cells; test: FITC-BSA internalization; assay type: cell-based, human
# Protocol: as §2
# [10] = cited from earlier work
# [11] = test system: T24 cells; test: TMR-dextran labeling of macropinosomes; assay type: cell-based; conditions: T24, oncogenic H-Ras
# Protocol: as §1
# [12] = test system: oncogenic Ras-transformed cells; test: Proliferation in low glutamine with physiological albumin; assay type: cell-based; conditions: 0.2 mM glutamine, rescued by increased glutamine or α-ketoglutarate
Compound,concentrations at which it exerts its effects on macropinocytosis [1] [mM],concentration at which maximal inhibition of macropinocytosis occurs [2] [µM],survival enhancement by extracellular albumin [3],effect on macropinocytosis with increasing concentrations [4],TMR-dextran labeling (macropinocytosis) [5],FITC-BSA internalization [6],albumin-dependent increase in intracellular α-ketoglutarate ([7]; 25 mM EIPA),albumin-dependent increase in intracellular glutamate ([7]; EIPA),FITC-BSA internalization [8],FITC-BSA internalization [9],solubility in cell culture media [10],TMR-dextran labeling (macropinocytosis) [11],effect on proliferation [12]
N=C(N)NC(=O)c1nc(Cl)c(N)nc1N [amiloride],1 to 5,,,,,,,,,,,,
"O=c1cc(N2CCOCC2)oc2c(-c3ccccc3)cccc12 [LY294002, 2-(4-morpholinyl)-8-phenyl-4H-1-benzopyran-4]",,100,,,,,,,,,,,
"CCN(c1nc(N)c(C(=O)N=C(N)N)nc1Cl)C(C)C [EIPA, 5-N-ethyl-N-isoproamiloride]",0.05 to 0.1,100,suppressed,dose-response relationship,inhibited,inhibited,blocked,blocked,inhibited,inhibited,soluble in cell culture media,inhibited,anti-proliferative response
